# Test results: patent publication US9889146B2, “Benzoxaborole compounds and uses thereof” (priority 2012, dated 2018)
# Values joined by “and” are separate entries in the source; they are usually repeats but may differ in a detail not shown here. Equal entries are not always repeated. Where two headings read alike, the source gives them in different places.
# How the values were obtained:
# Assay type in all cases: cell-based
# Klebsiella spp. (ESBL) = assay: microbe, parasite or virus in culture; conditions: Klebsiella
# [1] = test system: E. coli ATCC 25922 wild type and mutants; assay: MIC, wild type and GSK2251052 resistant mutants; conditions: Escherichia coli
# Procedure, shortened: (§1)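 MICs were determined following CLSI M7-A7 recommendations for aerobic bacteria. Strains were E. coli ATCC 25922, K. pneumoniae ATCC 13883, P. aeruginosa ATCC 27853 and six to ten laboratory-selected GSK2251052-resistant colonies of each, carrying mutations in the LeuRS editing domain.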
# [2] = test system: P. aeruginosa ATCC 27853 wild type and mutants; assay: MIC, wild type and GSK2251052 resistant mutants; conditions: Pseudomonas aeruginosa
# Procedure, shortened: as §1
# [3] = test system: K. pneumoniae ATCC 13883 wild type and mutants; assay: MIC, wild type and GSK2251052 resistant mutants; conditions: Klebsiella pneumoniae
# Procedure, shortened: as §1
# K. pneumoniae ATCC 13883 = assay: Spontaneous frequency of resistance; conditions: 4 X MIC, 24 h
# Procedure, shortened: (§2)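 Resistant mutants selected by plating varying inocula on MHBII noble agar with 4× or 10× MIC of GSK2251052, 24 and 48 h at 37 °C; resistance confirmed by regrowth on drug plates. Frequency = resistant colonies ÷ total cells plated, counted from dilutions of overnight culture on LB.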
# P. aeruginosa ATCC 27853 = assay: Spontaneous frequency of resistance; conditions: 24 h
# Procedure, shortened: as §2
# E. coli ATCC 25922 = assay: Spontaneous frequency of resistance; conditions: 10 X MIC, 24 h
# Procedure, shortened: as §2
# [4] = test system: Morganella morganii (AmpC); assay: microbe, parasite or virus in culture; conditions: Morganella morganii
# [5] = test system: Citrobacter freundii (AmpC); assay: microbe, parasite or virus in culture; conditions: Citrobacter freundii
# Proteus mirabilis (WT) = assay: microbe, parasite or virus in culture; conditions: Proteus mirabilis (WT)
# E. coli (ESBL) = assay: microbe, parasite or virus in culture; conditions: Escherichia coli
# Klebsiella spp. (KPC) = assay: microbe, parasite or virus in culture; conditions: Klebsiella
# Enterobacteriaceae = assay: organism not typed; conditions: Enterobacteriaceae
# [6] = test system: E. coli clinical isolates from subject E. coli 1; assay: GSK2251052 MIC of clinical isolates, subject E. coli 1; conditions: Escherichia coli, read-out: GSK2251052 MIC GSK results
# Experimental: The E. coli and P. mirabilis strains were cultured on Trypticase Soy Agar/5% blood plates (Becton Dickinson BBL), in cation adjusted Mueller-Hinton II Broth, or in M9 minimal salts (Becton Dickinson) broth containing 0.4% glucose and 200 uM MgSO4. L-Norvaline (Sigma-Aldrich) was prepared at a concentration of 6.4 mg/ml in […], in a final volume of approx 0.5 ml, and stored at −20° C. until required.
# Minimum inhibitory concentrations (MICs) were determined using the CLSI (Clinical and Laboratory Standards Institute, formerly NCCLS) recommended broth microdilution methodology [NCCLS, 2003] using defined media.
# Providencia spp.(all) = assay: microbe, parasite or virus in culture; conditions: Providencia spp.(all)
# [7] = read-out: susceptibility category of MIC90
# [8] = GSK2251052 breakpoint, read-out: susceptibility category of MIC90
smiles,measurement,setting,value
"NC[C@H]1OB(O)c2c(OCCCO)cccc21 [GSK2251052, (S)-3-aminomethyl-7-(3-hydroxy-propoxy)-3h-benzo[c][1,2]oxaborol-1-ol]",MIC90,Klebsiella spp. (ESBL),1 µg/mL
same,MIC90,Klebsiella spp. (ESBL); [7],< 4 µg/mL
same,MIC,"[1]; ATCC25922, E wt, leuRS mutation none, read-out: MIC",1 µg/mL
same,MIC,"[1]; ATCC25922, E. coli WT, read-out: GSK2251052 MIC",1 µg/mL
same,MIC,"[1]; ATCC25922, mutant E101, leuRS Y246H",64 µg/mL
same,MIC,"[1]; ATCC25922, mutant E102, leuRS D345G",256 µg/mL
same,MIC,"[1]; ATCC25922, mutant E103, leuRS D345G (ditto mark)",256 µg/mL
same,MIC,"[1]; ATCC25922, mutant E104, leuRS Y246H",64 µg/mL
same,MIC,"[1]; ATCC25922, mutant E105, leuRS D345G",256 µg/mL
same,MIC,"[1]; ATCC25922, mutant E106, leuRS D345G",256 µg/mL
same,MIC,"[1]; ATCC25922, mutant E107, leuRS G229S",> 256 µg/mL
same,MIC,"[1]; ATCC25922, mutant E108, leuRS D345G",256 µg/mL
same,MIC,"[1]; ATCC25922, mutant E109, leuRS D345G (ditto mark)",256 µg/mL
same,MIC,"[1]; ATCC25922, mutant E110, leuRS Duplication D345 Y346",> 256 µg/mL
same,MIC,"[2]; ATCC27853, P wt, leuRS mutation none, read-out: MIC",4 µg/mL
same,MIC,"[2]; ATCC27853, P. aeruginosa WT, read-out: GSK2251052 MIC",4 µg/mL
same,MIC,"[2]; ATCC27853, mutant P101, leuRS T256P",128 µg/mL
same,MIC,"[2]; ATCC27853, mutant P102, leuRS T256P (ditto mark)",32 µg/mL
same,MIC,"[2]; ATCC27853, mutant P103, leuRS T256P (ditto mark)",64 µg/mL
same,MIC,"[2]; ATCC27853, mutant P104, leuRS T256P (ditto mark)",128 µg/mL
same,MIC,"[2]; ATCC27853, mutant P105, leuRS T256P (ditto mark)",128 µg/mL
same,MIC,"[2]; ATCC27853, mutant P106, leuRS V342M",> 256 µg/mL
same,MIC,"[2]; ATCC27853, mutant P107, leuRS V342M (ditto mark)",128 µg/mL
same,MIC,"[2]; ATCC27853, mutant P108, leuRS T252P",128 µg/mL
same,MIC,"[2]; ATCC27853, mutant P109, leuRS V342M",128 µg/mL
same,MIC,"[2]; ATCC27853, mutant P110, leuRS V342M (ditto mark)",> 256 µg/mL
same,MIC,"[3]; ATCC13883, K wt, leuRS mutation none, read-out: MIC",1 µg/mL
same,MIC,"[3]; ATCC13883, K. pneumoniae WT, read-out: GSK2251052 MIC",1 µg/mL
same,MIC,"[3]; ATCC13883, mutant K104, leuRS D345Y",> 256 µg/mL
same,MIC,"[3]; ATCC13883, mutant K105, leuRS G229R",> 256 µg/mL
same,MIC,"[3]; ATCC13883, mutant K107, leuRS S227F",256 µg/mL
same,MIC,"[3]; ATCC13883, mutant K108, leuRS T248P",> 256 µg/mL
same,MIC,"[3]; ATCC13883, mutant K109, leuRS T248P (ditto mark)",> 256 µg/mL
same,MIC,"[3]; ATCC13883, mutant K110, leuRS V338L",256 µg/mL
same,Frequency of Resistance,K. pneumoniae ATCC 13883,4 × 10^−8 and 5 × 10^−8 and 8 × 10^−7
same,Frequency of Resistance,P. aeruginosa ATCC 27853; 4 X MIC,1 × 10^−7 and 2 × 10^−7
same,Frequency of Resistance,P. aeruginosa ATCC 27853; 10 X MIC,5 × 10^−8 and 9.6 × 10^−8
same,Frequency of Resistance,E. coli ATCC 25922,8 × 10^−8 and 6 × 10^−8 and 7 × 10^−8
same,MIC90,[4],2 µg/mL
same,MIC90,[4]; [7],< 4 µg/mL
same,MIC90,[5],1 µg/mL
same,MIC90,[5]; [7],< 4 µg/mL
same,MIC90,"Proteus mirabilis (WT); 235 isolates, read-out: MIC90",1 µg/mL
same,susceptibility category of MIC90,Proteus mirabilis (WT); [8],< 4 µg/mL
same,MIC90,E. coli (ESBL),1 µg/mL
same,MIC90,E. coli (ESBL); [7],< 4 µg/mL
same,MIC90,Klebsiella spp. (KPC),2 µg/mL
same,MIC90,Klebsiella spp. (KPC); [7],< 4 µg/mL
same,MIC90,"Enterobacteriaceae; 2029 isolates, read-out: MIC90",1 µg/mL
same,susceptibility category of MIC90,Enterobacteriaceae; [8],< 4 µg/mL
same,MIC,"[6]; 24 h, subject E. Coli 1, day 1, first line, no LeuRS change",0.5 µg/mL
same,MIC,"[6]; 24 h, subject E. Coli 1, day 1, second line, no LeuRS change",0.25 µg/mL
same,MIC,[6]; 48 h,16 µg/mL
same,MIC,[6]; 72 h,16 µg/mL
same,MIC,[6]; 96 h,16 µg/mL
same,MIC90,"Providencia spp.(all); 68 isolates, read-out: MIC90",1 µg/mL
same,susceptibility category of MIC90,Providencia spp.(all); [8],< 4 µg/mL
